These results are taken from US7192973B2, “Piperidine derivatives and their use as modulators of chemokine receptor activity (especially CCR5)” (AstraZeneca AB, priority 2001, dated 2007).

The assay has as its target recombinant human CCR5 receptor (Homo sapiens, UniProt P51681). Put plainly: in vitro radioligand binding assay: inhibition of the binding of iodinated MIP-1α. The conditions noted are these: membranes from Chinese hamster ovary cells expressing CCR5; 0.1 nM iodinated MIP-1α; average if tested more than once.

Sequence of recombinant human CCR5 receptor (P51681 whole entry): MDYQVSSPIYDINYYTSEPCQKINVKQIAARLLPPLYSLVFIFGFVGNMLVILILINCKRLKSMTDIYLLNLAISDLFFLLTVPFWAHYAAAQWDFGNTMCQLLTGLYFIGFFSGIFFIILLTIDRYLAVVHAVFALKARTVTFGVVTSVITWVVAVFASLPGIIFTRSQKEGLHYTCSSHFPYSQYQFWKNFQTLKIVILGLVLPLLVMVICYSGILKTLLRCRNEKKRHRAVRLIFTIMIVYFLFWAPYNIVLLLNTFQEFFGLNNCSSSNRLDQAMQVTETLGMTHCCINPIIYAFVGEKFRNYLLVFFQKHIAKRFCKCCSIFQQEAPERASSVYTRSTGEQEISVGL
Method: The ability of compounds to inhibit the binding of MIP-1α was assessed by an in vitro radioligand binding assay. Membranes were prepared from Chinese hamster ovary cells which expressed the recombinant human CCR5 receptor. These membranes were incubated with 0.1 nM iodinated MIP-1α, scintillation proximity beads and various concentrations of the compounds of the invention in 96-well plates. The amount of iodinated MMP-1α bound to the receptor was determined by scintillation counting. Competition curves were obtained for compounds and the concentration of compound which displaced 50% of bound iodinated MIP-1α was calculated (IC50).

As for `CCN(C(=O)Cc1ccc(S(C)(=O)=O)cc1)C1CCN(CCC(c2ccccc2)N2CCN(C)CC2)CC1` (centres unmarked) [6 of Table I], the concentration for half-maximal inhibition (IC50) (in general, the point on the concentration scale where inhibition reaches its midpoint) was 363 nM.
As for `CCN(C(=O)Cc1ccc(S(C)(=O)=O)cc1)C1CCN(CCC(c2ccccc2)N2CCN(S(=O)(=O)CC(F)(F)F)CC2)CC1` (centres unmarked) [15 of Table II], the concentration for half-maximal inhibition (IC50) is 5.62 nM.
